“And” between values parts separate entries of the source, which are not always exact repeats. Equal values may be shown once. Blank lines part the entries; values can stand above or below the compound they belong to.
Columns and labels:
[1] = system: GABAA receptor α5 subtype; design: method as in PMID 30102960, PMID 32578977; details: cited from earlier work
[2] = Plasma tiagabine concentration by mass spectrometry; type: in vivo, rhesus monkeys (Macaca mulatta); details: 0.5 mg/kg tiagabine i.v.; 30–190 min after tiagabine injection
Method: For 8 of the 10 blocking scans, venous blood samples were acquired at 30, 60, 90, 120, 160, and 190 min after injection of tiagabine, in addition to 1 control sample before tiagabine injection, to measure its concentration using mass spectrometry (described in the supplemental materials).

[3] = design: method as in PMID 9530548; details: humans, 24-mg single oral dose; cited from earlier work
GABA = details: vervet brain in vivo; cited from earlier work
GAT-1 [4] = system: GAT-1; design: method as in PMID 10642842; details: in vitro, human brain postmortem; cited from earlier work
GAT-1 [5] = target: T1, GAT-1 (Macaca mulatta, UniProt H9ELS5); assay: PET brain imaging with kinetic modeling (1TCM), baseline and tiagabine blocking scans; type: in vivo, rhesus monkeys (Macaca mulatta); details: for Median VT across ROIs: 1TCM
T1 construct: from tissue; host or cells: brain of living rhesus monkeys (in vivo PET)
T1 sequence (H9ELS5 1-599): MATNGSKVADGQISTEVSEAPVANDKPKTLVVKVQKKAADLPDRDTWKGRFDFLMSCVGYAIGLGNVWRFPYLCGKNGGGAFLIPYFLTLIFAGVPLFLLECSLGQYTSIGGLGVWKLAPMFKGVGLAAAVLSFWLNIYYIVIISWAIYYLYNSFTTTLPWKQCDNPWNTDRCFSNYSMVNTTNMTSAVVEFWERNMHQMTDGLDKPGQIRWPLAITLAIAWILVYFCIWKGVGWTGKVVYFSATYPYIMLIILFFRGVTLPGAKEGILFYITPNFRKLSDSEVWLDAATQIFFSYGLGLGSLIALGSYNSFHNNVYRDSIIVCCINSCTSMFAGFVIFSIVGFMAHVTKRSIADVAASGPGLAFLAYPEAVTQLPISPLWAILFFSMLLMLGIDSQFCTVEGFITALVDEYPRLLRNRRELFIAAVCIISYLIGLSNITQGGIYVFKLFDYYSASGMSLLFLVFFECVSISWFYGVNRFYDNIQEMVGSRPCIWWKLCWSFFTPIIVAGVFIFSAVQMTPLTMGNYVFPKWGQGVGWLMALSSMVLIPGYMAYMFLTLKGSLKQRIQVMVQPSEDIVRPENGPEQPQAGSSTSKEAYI
Method: Twenty scans were acquired from 4 rhesus monkeys (Macaca mulatta). Each monkey underwent baseline and blocking scans with ^18F-GATT-31, ^18F-GATT-34, ^18F-GATT-39, or ^18F-GATT-44 (Fig. 1) on a Focus-220 small-animal PET scanner (Siemens Healthineers).
(§1) Before each scan, each monkey was sedated with alfaxalone (2 mg/kg), midazolam (0.3 mg/kg), and dexmedetomidine (0.01 mg/kg), and anesthesia was maintained with 1.5%–2.5% isoflurane. Heart rate, blood pressure, respiration rate, and oxygen saturation were monitored continuously. An intravenous line was placed in the saphenous or cephalic vein for delivery of the radiotracer, as well as tiagabine during blocking studies (0.5 mg/kg administered 19 ± 4 min before radiotracer injections). A catheter was placed in the radial or tibial artery for blood sampling.
Before injection, a transmission scan was acquired. Starting with injection of the radiotracer, PET emission data were acquired in list-mode format and binned into 45 frames (6 × 30 s, 3 × 1 min, 2 × 2 min, and 34 × 5 min).
For region-of-interest (ROI) definition, each PET image was registered to an in-house rhesus monkey anatomical MRI template using the concatenation of a rigid-body transformation between the summed PET image (0–10 min) and corresponding monkey’s MRI (using the FMRIB Linear Image Registration Tool) and a nonlinear transformation matrix estimated between the monkey’s MRI and the MRI template (BioImage Suite software version 3.01). Regional time–activity curves were extracted for the following 11 ROIs: brain stem, caudate, cerebellum, cingulate cortex, frontal cortex, hippocampus, insula, occipital cortex, putamen, temporal cortex, and thalamus.
For each baseline and blocking scan, kinetic analysis was performed using a 1-tissue compartment model (1TCM), a reversible 2-tissue compartment model (2TCM; k4 > 0), and an irreversible 2-tissue compartment model (2TiCM; k4 = 0), including a blood volume fraction (Vb) term and a time-delay term. Vb was estimated for each time–activity curve using the whole-blood curve fitted with a sum of exponentials. The time delay (Δt) between the input function and the brain was estimated by fitting the first 10 min of the whole-brain time–activity curve to a 1TCM with 3 parameters: K1, Vb, and Δt (k2 was set to 0 because of the negligible radiotracer washout during the first 10 min). This estimated time delay value was then used in the time–activity curve fits. The primary parameters of interest were the influx constant (K1, expressed in microliters per minute per cubic centimeter, since values were low), the volume of distribution (VT, expressed in milliliters per cubic centimeter), and the net influx constant (Ki, expressed in milliliters per minute per cubic centimeter) for 2TiCM.

[6] = Metabolite analysis of arterial plasma (unmetabolized parent fraction), column-switching HPLC; type: in vivo, rhesus monkeys (Macaca mulatta); details: mean ± SD
Method: Arterial blood samples were collected for each scan to measure the input function. Metabolite analysis was performed using an automatic column-switching high-performance liquid chromatography system ([22]) for 7 arterial blood samples collected at 5, 15, 30, 60, 90, 120, and 180 min. The radiometabolite-corrected arterial plasma input function was obtained by calculating the product of the fitted total plasma (fitted with a sum of exponentials) and unmetabolized parent fraction curves (using an integrated γ-function ([23])).

[7] = Plasma free fraction (fp), ultrafiltration method; type: in vitro ADME, rhesus monkeys (Macaca mulatta); details: measured in triplicate per scan, mean ± SD
Method: The plasma free fraction (fp) for each scan was measured in triplicate using the ultrafiltration method and calculated as the ratio of radioactivity in the filtrate to that in the plasma ([24]).

P-glycoprotein (PgP) = P-glycoprotein (PgP) (Homo sapiens, UniProt P08183); assay: Efflux by P-glycoprotein; type: in vitro ADME
Sequence of P-glycoprotein (PgP) (P08183 whole entry): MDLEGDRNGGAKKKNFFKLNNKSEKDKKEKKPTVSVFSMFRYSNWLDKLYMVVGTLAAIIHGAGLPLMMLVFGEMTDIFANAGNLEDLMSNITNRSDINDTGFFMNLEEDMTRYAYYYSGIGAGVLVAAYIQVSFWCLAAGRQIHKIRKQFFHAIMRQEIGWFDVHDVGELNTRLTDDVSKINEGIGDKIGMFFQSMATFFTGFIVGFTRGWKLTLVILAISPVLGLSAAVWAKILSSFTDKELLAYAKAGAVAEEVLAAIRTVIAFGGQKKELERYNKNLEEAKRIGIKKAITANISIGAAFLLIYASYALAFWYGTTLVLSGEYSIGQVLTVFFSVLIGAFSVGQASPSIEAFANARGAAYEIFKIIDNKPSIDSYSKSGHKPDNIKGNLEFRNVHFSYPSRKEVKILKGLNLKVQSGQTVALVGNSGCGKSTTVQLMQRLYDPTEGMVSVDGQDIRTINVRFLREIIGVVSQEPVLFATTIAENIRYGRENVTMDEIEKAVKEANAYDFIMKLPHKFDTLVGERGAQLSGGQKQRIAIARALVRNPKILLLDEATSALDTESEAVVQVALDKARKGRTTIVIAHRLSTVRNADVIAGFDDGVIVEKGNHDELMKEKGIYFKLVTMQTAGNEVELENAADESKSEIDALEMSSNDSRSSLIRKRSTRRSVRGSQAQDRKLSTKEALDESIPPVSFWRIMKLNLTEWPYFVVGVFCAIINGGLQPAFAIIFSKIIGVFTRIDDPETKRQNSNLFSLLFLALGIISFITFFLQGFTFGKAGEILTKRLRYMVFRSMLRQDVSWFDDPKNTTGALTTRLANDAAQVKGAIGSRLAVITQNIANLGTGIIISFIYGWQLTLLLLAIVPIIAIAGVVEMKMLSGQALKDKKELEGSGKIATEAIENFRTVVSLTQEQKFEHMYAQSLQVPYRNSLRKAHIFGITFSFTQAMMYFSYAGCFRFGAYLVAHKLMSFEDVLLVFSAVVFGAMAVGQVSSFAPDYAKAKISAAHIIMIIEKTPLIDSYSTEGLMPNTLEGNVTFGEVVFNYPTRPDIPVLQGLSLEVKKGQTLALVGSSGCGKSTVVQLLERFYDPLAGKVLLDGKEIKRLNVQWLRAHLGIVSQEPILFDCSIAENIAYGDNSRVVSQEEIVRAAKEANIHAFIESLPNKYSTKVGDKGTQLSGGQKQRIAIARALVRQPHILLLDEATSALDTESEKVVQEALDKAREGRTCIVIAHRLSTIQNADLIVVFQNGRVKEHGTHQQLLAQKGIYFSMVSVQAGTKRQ

GAT-1 [8] = target: T1, GAT-1; assay: Occupancy plots from baseline and tiagabine blocking PET scans (occupancy, VND, BPND); type: in vivo, rhesus monkeys (Macaca mulatta); details: for VND: occupancy plot; for Occupancy: tiagabine 0.5 mg/kg occupancy measured with this radiotracer
Method: as §1
Occupancy plots ([26]) were used to estimate tiagabine occupancy and the nondisplaceable volume of distribution (VND). This VND value was used to compute the nondisplaceable binding potential (BPND = VT/VND − 1). To compare the performance between 2 radiotracers, a Guo plot ([27]) was created, using baseline VT values, to assess the relative affinity and BPND values of each radiotracer.

[9] = after blocking with tiagabine 0.5 mg/kg

Structure (SMILES): CCOC(=O)c1ncn2c1CN([11CH3])C(=O)c1cc(N=[N+]=[N-])ccc1-2 [[^11C]Ro15-4513]
- Affinity [1]: high affinity

Structure (SMILES): Cc1ccccc1C(=COCCN1CCCC(C(=O)O)C1)c1ccccc1[18F] (stereo not shown) [^18F-GATT-31]
- Median VT across ROIs (GAT-1 [5]; [9]): 1.5 mL/cm^3
- Median VT across ROIs (GAT-1 [5]; baseline): 2.8 mL/cm^3
- Parent compound ([6]; 30 min): 87 ± 3%
- Parent compound ([6]; 90 min): 76 ± 6%
- Parent compound ([6]; 180 min): 63% and 63 ± 11%
- Efflux by PgP (category) (P-glycoprotein (PgP)): low efflux by PgP
- Free fraction [7]: 12.4 ± 1.8%
- VND (GAT-1 [8]; monkey 1): 0.31 mL/cm^3
- VND (GAT-1 [8]; monkey 2): −0.61 mL/cm^3 and −0.61 ^* mL/cm^3
- VND (GAT-1 [8]; monkey 3): 1.02 mL/cm^3
- Occupancy (GAT-1 [8]; monkey 1): 69%
- Occupancy (GAT-1 [8]; monkey 2): 22%
- Occupancy (GAT-1 [8]; monkey 3): 70%

Continued, in another order:

- Average plasma concentration [2]: 385 ± 70 µg/L
Structure (SMILES): Cc1ccsc1C(=CCCN1CCC[C@@H](C(=O)O)C1)c1sccc1C [tiagabine, (R)-1-[4,4-bis(3-methyl-2-thienyl)-3-butenyl]-3-piperidinecarboxylic acid]
- Elimination half-life [3]: 7.3 h
- Plasma concentration peak value [3]: 552 µg/L
- Effect on GABA in brain (GABA): increase GABA
- Selectivity for GAT-1 (GAT-1 [4]): excellent selectivity for GAT-1

- Median VT across ROIs (GAT-1 [5]; [9]): 1.3 mL/cm^3
- Median VT across ROIs (GAT-1 [5]; baseline): 1.5 mL/cm^3
- Blocking effect of tiagabine on VT (GAT-1 [5]; tiagabine 0.5 mg/kg): small
- Parent compound ([6]; 30 min): 91 ± 2%
- Parent compound ([6]; 90 min): 83 ± 2%
- Free fraction [7]: 10.8 ± 0.4%
Structure (SMILES): Cc1ccccc1C(=COCCN1CCCC(C(=O)O)C1)c1ccc([18F])cc1 (stereo not shown) [^18F-GATT-34]

- K1 values (GAT-1 [5]; 1TCM influx constant): especially low
- Median VT across ROIs (GAT-1 [5]; [9]): 0.9 mL/cm^3
- Median VT across ROIs (GAT-1 [5]; baseline): 1.6 mL/cm^3
- Parent compound ([6]; 30 min): 95 ± 4%
- Parent compound ([6]; 90 min): 85 ± 9%
- Free fraction [7]: 10.5 ± 1.0%
Structure (SMILES): O=C(O)C1CCCN(CCC=C(c2ccccc2[18F])c2ccccc2Cl)C1 (stereo not shown) [^18F-GATT-39]

Source: article PMC12487869, “Toward Imaging of the GABA Transporter Type 1 In Vivo: Quantitative Evaluation of 4 Novel PET Radiotracers in Nonhuman Primates” (Journal of Nuclear Medicine, 2025)
